Test results published in patent EP2016954A1, “Antibodies against 4-(methylnitrosamino)-1-(3-pyridyl)-1-butanone and metabolites thereof” (Muller, Claude P., priority 2007, dated 2009).
“And” between values parts separate entries of the source, which are not always exact repeats. Equal values may be shown once.

Tests used:
P7H3 = experiment: Competition ELISA with mAb P7H3; format: binding, mouse; details: for inhibition of P7H3 binding: competition ELISA, result in words; for IC50: competitor inhibiting binding of P7H3
Procedure: (§1) In all competition experiments, optimal antigen coating conditions and serum dilutions were determined by direct ELISA. 384-well plates were coated with the minimal amount of antigen required for maximal signal. Sera or mAb supernatants were diluted to obtain 70% binding and a signal of 1.0 to 1.5 O.D. at 0% competition (highest signal). The competitors (NNK and its metabolites (NNAL, NNK-N-ox, NNAL-N-ox, keto acid (1-(3-pyridyl)-1-butanone-4-carboxylic acid), PBCA (1-(3-pyridyl)-1-butanol-4-carboxylic acid), PB (1-(3-pyridyl)-1-butanediol) and HPB (4-hydroxy-1-(3-pyridyl)-1-butanone)), from Toronto Research Chemicals Inc., Canada and Acros Organics, Geel, Belgium) were resuspended in 100% dimethylsulfoxide and stock solutions of […] were frozen at -80°C. Competitors were mixed 1:1 with sera or mAb supernatants to final concentrations of 0 to 512 µM for mAbs or 0 to 1024 µM for serum. Zero (highest signal) and 100% competition (background signal) were determined using no or NNK-C2 as competitor. The difference between these two values corresponds to the dynamic range of the assay. For each competitor concentration, the 50% of inhibitory concentration, IC50 was calculated. Experiments were independently repeated three times and data were analyzed used SigmaStat software. Net OD was calculated by subtraction of the relevant background as described in each figure.

P9D5 = experiment: Competition ELISA with mAb P9D5 on immobilized [NNK-C2]-OVA; format: binding, mouse; details: for IC50: competitor inhibiting binding of P9D5 to [NNK-C2]-OVA; for IC50 compared with the one of NNK: P9D5, result in words; for inhibition of P9D5 binding: competition ELISA, result in words
Procedure: as §1

anti-[NNK-C2]-DT sera = experiment: Competition ELISA with mouse sera on coated [NNK-C2]-OVA; format: binding, BALB/c mice; details: for IC50: competitor inhibiting binding of serum antibodies to coated [NNK-C2]-OVA; for specific reactivity of mouse sera: competition ELISA
Procedure: Specific antibodies were monitored after each injection of [NNK-C2]-DT. […] NNK-specific antibodies were monitored by competition ELISA by adding increasing concentrations of NNK as competitors (0-256µM) (Figure 1) to measure their capacity to inhibit the binding of serum antibodies to coated [NNK-C2]-OVA.
as §1

P9D5 and P7H3 = experiment: Competition ELISA, results stated jointly for both mAbs; format: binding, mouse; details: for binding of the antibodies: N-oxidation of the pyridyl ring, result in words; for IC50: range over P9D5 and P7H3
Procedure: as §1

NCI-H82 cells = experiment: NNK-induced proliferation of NCI-H82 cells (ATP bioluminescence); format: cell-based, human; details: NNK 25 nM, 24h
Procedure: NCI-H82 cells were obtained from European Collection of Cell Cultures and maintained in RPMI 1640 with 2 mM L-glutamine (Biowhittaker, Verviers, BE) with the above supplements ("NCI-H82 medium"). Every 2 or 3 days cell medium was renewed. Cells were subcultured once a week. All cultures were mycoplasma-free.
For proliferation experiments, NCI-H82 cells were seeded at a concentration of about 8 x 10^3 cells/well in 200 µl of NCI-H82 medium on collagen type I coated 96-well plates (Greiner Bio-one, Wemmel, BE) and incubated at 37°C and 10% CO2. Proliferation assays were performed at 10% CO2 since CO2 seems to act as a potent messenger molecule for SCLC cells, enhancing the susceptibility of this cancer cell to a host of autocrine and paracrine growth-stimulating signals. After 18h, medium was replaced by fresh NCI-H82 medium containing only 0.15% heat-inactivated fetal bovine serum ("low serum medium") 6h prior NNK treatment. Stock solutions of NNK were prepared in dimethyl sulfoxide. […] Cell proliferation was assessed 24h after treatment using the ViaLightTM HS kit according to the manufacturer's instructions (Cambrex Bioscience, Verviers, BE). Bioluminescence of ATP present in metabolically active cells, was measured on a GENios Plus fluorescence plate reader (Tecan, Mechelen, BE). […]

| SMILES | inhibition of P7H3 binding (P7H3) | IC50 (P9D5) | IC50 (anti-[NNK-C2]-DT sera) [µM] | IC50 (P9D5 and P7H3) [µM] | further results |
| --- | --- | --- | --- | --- | --- |
| OCCCC(O)c1cccnc1 (centres unmarked) [PB, 1-(3-pyridyl)-1-butanediol] | moderately inhibited | 72 µM | 230 | – | – |
| O=C(O)c1ccc[n+]([O-])c1 [NIA-N-Ox, nicotinic acid-N-oxide] | – | – | – | – | binding of the antibodies (P9D5 and P7H3): totally obliterates binding |
| CN(CCCC(O)c1ccc[n+]([O-])c1)N=O (centres unmarked) [NNAL-N-Ox, 4-(methylnitrosamino)-1-(3-pyridyl-N-oxide)-1-butanol] | – | – | – | – | specific reactivity of mouse sera (anti-[NNK-C2]-DT sera): essentially no specific reactivity was detected; binding of the antibodies (P9D5 and P7H3): totally obliterates binding |
| CCOC(=O)c1cccnc1 [ENAT, ethylnicotinate] | – | 49 µM | – | 49 to 80 | IC50 (P7H3): 80 µM |
| Cc1cccnc1 [3-picoline] | – | 400 µM | – | – | IC50 (P7H3): 320 µM |
| CN(CCCC(O)c1cccnc1)N=O (centres unmarked) [NNAL, 4-(methylnitrosamino)-1-(3-pyridyl)-1-butanol] | – | 20 µM | 80 | 29 to 93 | – |
| O=C(O)CCC(O)c1cccnc1 (centres unmarked) [PBCA, 1-(3-pyridyl)-1-butanol-4 carboxylic acid] | moderately inhibited | – | – | – | IC50 compared with the one of NNK (P9D5): significant increase of the IC50; inhibition of P9D5 binding (P9D5): moderate inhibition |
| O=C(CCCO)c1cccnc1 [HPB, 4-hydroxy-1-(3-pyridyl)-1-butanone] | moderately inhibited | 50 µM | 80 | – | – |
| NCCN(CCCC(=O)c1cccnc1)N=O [NNK-C2, 4-[2-amino-ethyl(nitrosamino)]-1-pyridine-3-yl-butane-1-one] | – | 3.7 µM | – | 4.4 to 12 | – |
| CN(CCCC(=O)c1cccnc1)N=O [NNK, 4-(methylnitrosamino)-1-(3-pyridyl)-1-butanone] | – | 63 µM and 80 µM | 26 | 80 to 160 | IC50 (P7H3): 160 µM; increase of cell number in comparison to unstimulated control cells (NCI-H82 cells): 2 to 3 fold |
| CN(CCCC(=O)c1ccc[n+]([O-])c1)N=O [NNK-N-Ox, 4-(methylnitrosamino)-1-(3-pyridyl-N-oxide)-1-butanone] | – | – | – | – | specific reactivity of mouse sera (anti-[NNK-C2]-DT sera): essentially no specific reactivity was detected; binding of the antibodies (P9D5 and P7H3): totally obliterates binding |
| O=C(O)CCC(=O)c1cccnc1 [keto acid, 1-(3-pyridyl)-1-butanone-4 carboxylic acid] | moderately inhibited | – | – | – | IC50 compared with the one of NNK (P9D5): significant increase of the IC50; inhibition of P9D5 binding (P9D5): moderate inhibition |
